According to PubChem BioAssay (NCI):
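All cell lines were grown in 96-well plates and treated with compound for 48 hours. Definition used: TGI = concentration required for complete inhibition of growth.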

Experiments:
Experiment in all cases: inhibition of tumour cell growth, NCI panel, 48 h
OVCAR-4 ovarian = system: OVCAR-4 ovarian
SN12C renal = system: SN12C renal
TK-10 renal = system: TK-10 renal
SF-539 CNS = system: SF-539 CNS
HS 578T breast = system: HS 578T breast
NCI/ADR-RES ovarian = system: NCI/ADR-RES ovarian
K-562 leukemia = system: K-562 leukemia
KM12 colon = system: KM12 colon
SR leukemia = system: SR leukemia
SF-268 CNS = system: SF-268 CNS

CC(C)(C)[Si](C)(C)OC[C@H](/C=C\CCCC(=O)O)NC1(c2ccccc2)c2ccccc2-c2ccccc21
TGI (OVCAR-4 ovarian): > 100 µM | TGI (SN12C renal): 31.6 µM | TGI (TK-10 renal): > 100 µM | TGI (SF-539 CNS): 31.3 µM | TGI (HS 578T breast): 50.5 µM | TGI (NCI/ADR-RES ovarian): 61 µM | TGI (K-562 leukemia): 45.5 µM | TGI (KM12 colon): 48.8 µM | TGI (SR leukemia): 32.3 µM | TGI (SF-268 CNS): 35.4 µM

COc1cc(/C=N/NC2=NCCN2)ccc1O
TGI (OVCAR-4 ovarian): > 100 µM | TGI (SN12C renal): > 100 µM | TGI (TK-10 renal): > 100 µM | TGI (SF-539 CNS): > 100 µM | TGI (HS 578T breast): > 100 µM | TGI (NCI/ADR-RES ovarian): > 100 µM | TGI (K-562 leukemia): > 100 µM | TGI (KM12 colon): > 100 µM | TGI (SR leukemia): > 100 µM | TGI (SF-268 CNS): > 100 µM

O=[N+]([O-])/C(C(Cl)=C(Cl)Cl)=C(/Nc1ccccc1)Sc1ccccc1
TGI (OVCAR-4 ovarian): 37.3 µM | TGI (SN12C renal): 97.5 µM | TGI (TK-10 renal): 59.8 µM | TGI (SF-539 CNS): 52.3 µM | TGI (HS 578T breast): > 100 µM | TGI (NCI/ADR-RES ovarian): 78.9 µM | TGI (K-562 leukemia): 41.6 µM | TGI (KM12 colon): 36 µM | TGI (SR leukemia): 43 µM | TGI (SF-268 CNS): 28.2 µM

Nc1cc2c3c(cccc3c1)C(=O)N(c1ccc(OCCN3CCCC3)cc1)C2=O
TGI (OVCAR-4 ovarian): 33.8 µM | TGI (SN12C renal): > 66.7 µM | TGI (TK-10 renal): 35.6 µM | TGI (SF-539 CNS): 27.8 µM | TGI (HS 578T breast): 55.7 µM | TGI (NCI/ADR-RES ovarian): > 57 µM | TGI (K-562 leukemia): 49.2 µM | TGI (KM12 colon): 31.1 µM | TGI (SR leukemia): 50.9 µM | TGI (SF-268 CNS): > 59.7 µM

C(#Cc1ccccc1)SC1=C(c2ccccc2)S/C(=C(\SC#Cc2ccccc2)c2ccccc2)S1
TGI (OVCAR-4 ovarian): > 100 µM | TGI (SN12C renal): > 100 µM | TGI (TK-10 renal): > 100 µM | TGI (SF-539 CNS): > 100 µM | TGI (HS 578T breast): > 100 µM | TGI (NCI/ADR-RES ovarian): > 100 µM | TGI (K-562 leukemia): > 100 µM | TGI (KM12 colon): > 100 µM | TGI (SR leukemia): > 100 µM | TGI (SF-268 CNS): > 100 µM

COc1ccccc1NC(=S)N/N=C/c1cccc(C)n1
TGI (OVCAR-4 ovarian): > 100 µM | TGI (SN12C renal): > 93.8 µM | TGI (TK-10 renal): > 100 µM | TGI (SF-539 CNS): 28.1 µM | TGI (HS 578T breast): > 100 µM | TGI (NCI/ADR-RES ovarian): > 31.1 µM | TGI (K-562 leukemia): > 100 µM | TGI (KM12 colon): > 100 µM | TGI (SR leukemia): 10.4 µM | TGI (SF-268 CNS): > 100 µM

CC[C@@]1(O)C(=O)OCc2c1cc1n(c2=O)Cc2c-1nc1ccccc1c2/C=N\NC(=O)C(N)Cc1c[nH]c2ccccc12 (stereo not given in full)
TGI (OVCAR-4 ovarian): > 100 µM | TGI (SN12C renal): > 95.3 µM | TGI (TK-10 renal): > 100 µM | TGI (SF-539 CNS): 0.584 µM | TGI (HS 578T breast): > 100 µM | TGI (NCI/ADR-RES ovarian): > 35.6 µM | TGI (K-562 leukemia): > 100 µM | TGI (KM12 colon): > 42.7 µM | TGI (SR leukemia): 1.19 µM | TGI (SF-268 CNS): 19.6 µM

O=c1[nH]c2ccc([N+](=O)[O-])cc2nc1/C=C(\O)c1ccccc1
TGI (OVCAR-4 ovarian): 8.87 µM | TGI (SN12C renal): 59.5 µM | TGI (TK-10 renal): 14.8 µM | TGI (SF-539 CNS): 69.8 µM | TGI (HS 578T breast): 8.93 µM | TGI (NCI/ADR-RES ovarian): 81.5 µM | TGI (K-562 leukemia): > 100 µM | TGI (KM12 colon): > 100 µM | TGI (SR leukemia): > 100 µM | TGI (SF-268 CNS): 58.3 µM

CN(C)CCNC(=O)c1c(O)ccc2c1c1c(n2CCc2ccccc2)C(=O)c2ccccc2C1=O
TGI (OVCAR-4 ovarian): 24.6 µM | TGI (SN12C renal): 20 µM | TGI (TK-10 renal): 18.4 µM | TGI (SF-539 CNS): 11.1 µM | TGI (HS 578T breast): 27.1 µM | TGI (NCI/ADR-RES ovarian): 29.4 µM | TGI (K-562 leukemia): 6.07 µM | TGI (KM12 colon): 15.9 µM | TGI (SR leukemia): 7.11 µM | TGI (SF-268 CNS): 15 µM
